# Reference: the supplement of paper PMC10702517
# ± gives the standard deviation.
# How the values were obtained:
# [1] = chemical recovery from spiked human plasma; higher = better extraction; settings: pooled human plasma
# [2] = chemical recovery into PDMS from spiked human plasma; higher = better extraction; settings: pooled human plasma, extraction method: PES with PDMS
# [3] = chemical recovery by SPE of plasma after PDMS sampling; higher = better extraction; settings: pooled human plasma, extraction method: HLB SPE of plasma after PES
# [4] = extraction method: PES+SPE (3 d PDMS equilibration then HLB SPE)
# [5] = extraction method: SPE only (HLB 96-well)
# [6] = extraction method: SPE only (HLB 96-well), PES comparison experiment
# [7] = extraction method: solvent precipitation (ACN + hexane)
# 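Throughout, for chemical recovery by SPE of plasma after PDMS sampling: over 400 spiked chemicals quantified by LC-HRMS or GC-HRMS via internal standard calibration, recovery relative to spike mix added to unspiked plasma extract to correct matrix effects.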
SMILES,"chemical recovery [1, 4]","chemical recovery [1, 5]","chemical recovery [1, 6]","chemical recovery [1, 7]",chemical recovery into PDMS ([2]; equilibration time (d): 1),chemical recovery into PDMS ([2]; equilibration time (d): 3),chemical recovery into PDMS ([2]; equilibration time (d): 6),chemical recovery by SPE of plasma ([3]; equilibration time (d): 1),chemical recovery by SPE of plasma ([3]; equilibration time (d): 3),chemical recovery by SPE of plasma ([3]; equilibration time (d): 6)
"Cc1cc(Cc2ccc(N)c(C)c2)ccc1N [4,4'-Methylene-bis(2-methyl aniline)]",1.31 ± 0.94%,30.3 ± 9.8%,24.5 ± 4%,65 ± 9.2%,0.0153 ± 0.026%,0.00421 ± 0.0073%,0.0106 ± 0.018%,4.29 ± 0.41%,4.74 ± 0.39%,2.61 ± 0.21%
"ClC(Cl)=C(c1ccc(Cl)cc1)c1ccc(Cl)cc1 [4,4-DDE]",,,13 ± 3%,,83.8 ± 12%,87.9 ± 3.9%,93 ± 13%,0.964 ± 1%,0.268 ± 0.47%,
NC(=O)c1ccc(N)cc1 [4-Aminobenzamide],3.92 ± 0.79%,3.28 ± 2.1%,,98.6 ± 21%,0.339 ± 0.59%,0.844 ± 0.17%,0.572 ± 0.1%,,5.92 ± 1.7%,10 ± 3.9%
"C[C@]12CCC(=O)C=C1CC[C@@H]1[C@@H]2CC[C@]2(C)C(=O)CC[C@@H]12 [4-Androstene-3,17-dione]",,,49.8 ± 8.7%,,39.8 ± 3%,43.4 ± 1.7%,42.6 ± 3.7%,1.37 ± 2.1%,4.32 ± 1.8%,1.36 ± 1.8%
Nc1ccc(Cl)cc1 [4-Chloroaniline],,16.4 ± 6.2%,,,6.69 ± 4.3%,5.92 ± 5.1%,5.47 ± 3.5%,11.4 ± 2.3%,14.6 ± 1.5%,9.71 ± 1.7%
O=C(O)CCC(=O)c1ccc(F)cc1 [4-Fluorobenzoylpropionic acid],47.1 ± 4.1%,42.5 ± 2%,59.7 ± 7.3%,64 ± 7.2%,,0.0416 ± 0.072%,0.0611 ± 0.11%,60.4 ± 6.4%,60.3 ± 4.6%,56.6 ± 5.1%
O=[N+]([O-])c1cc[n+]([O-])c2ccccc12 [4-Nitroquinoline-1-oxide],,,42.3 ± 8.4%,,14.2 ± 0.49%,14.7 ± 1.4%,17 ± 0.8%,15.1 ± 2.7%,18.4 ± 2.5%,13.5 ± 1.6%
c1cc2c3c(c1)ccc1cccc(c13)C2 [4H-Cyclopenta(def)phenanthrene],,,19.6 ± 3.7%,,94.4 ± 32%,93.2 ± 14%,108 ± 43%,1.81 ± 1.4%,2 ± 0.34%,1.85 ± 0.12%
Clc1ccc2[nH]nnc2c1 [5-Chlorobenzotriazole],44.7 ± 2.5%,41.8 ± 2.6%,52.8 ± 6.1%,59.3 ± 5%,0.3 ± 0.043%,0.905 ± 0.21%,1.34 ± 0.43%,55.2 ± 9.2%,55.2 ± 5%,52.3 ± 6.8%
Cc1ccc2[nH]nnc2c1 [5-Methyl-1H-benzotriazole],54.6 ± 2.9%,46.3 ± 3%,51.7 ± 8.2%,58.1 ± 3.9%,3.14 ± 0.15%,6.47 ± 1.2%,8.16 ± 2%,45.5 ± 4.2%,42.2 ± 5.6%,36 ± 2.7%
CCNc1ccc2c(C)cc(=O)oc2c1 [7-(Ethylamino)-4-methylcoumarin],42.9 ± 6.9%,45.6 ± 5.5%,50 ± 6%,77.9 ± 3.2%,26.7 ± 4.1%,28.7 ± 3%,30.7 ± 1.9%,6.09 ± 0.59%,4.96 ± 0.66%,2.87 ± 0.15%
Cc1cc(=O)oc2cc(N)ccc12 [7-Amino-4-methylcoumarin],42.6 ± 3.4%,,53.5 ± 9.9%,70.4 ± 2%,12.65 ± 0.075%,17.9 ± 2.4%,18.9 ± 2.1%,39.4 ± 4.9%,34.9 ± 3.5%,28.3 ± 3.2%
CN(Cc1nc2c(N)nc(N)nc2nc1O)c1ccc(C(=O)N[C@@H](CCC(=O)O)C(=O)O)cc1 [7-Hydroxymethotrexate],,,37.4 ± 4.5%,,,,0.0138 ± 0.079%,38.5 ± 7.5%,45.7 ± 5.5%,40.3 ± 0.48%
"NC(=O)N1c2ccccc2CC(O)c2ccccc21 (configuration not stated) [10,11-Dihydro-10-hydroxycarbamazepine]",47.3 ± 4.9%,49.1 ± 5.4%,51.2 ± 4.5%,71.1 ± 3%,0.612 ± 0.1%,1.31 ± 0.36%,1.45 ± 0.21%,59.8 ± 8.4%,60.8 ± 6%,55.6 ± 7.7%
C[C@]12CC(=O)[C@H]3[C@@H](CCC4=CC(=O)CC[C@@]43C)[C@@H]1CC[C@@H]2O [11-Ketotestosterone],,,50.5 ± 4.8%,,4.7 ± 9.7%,,,34.3 ± 3.9%,30.6 ± 2.7%,21.9 ± 3.6%
COC[P+](c1ccccc1)(c1ccccc1)c1ccccc1 [(Methoxymethyl)triphenylphosphonium],40.1 ± 4.1%,36.1 ± 3.5%,48.7 ± 4.5%,71.1 ± 3.3%,,0.00031 ± 0.0019%,0.00283 ± 0.0035%,50.8 ± 5.7%,50.4 ± 4.2%,48.9 ± 5.7%
C/C(=N\C#N)N(C)Cc1ccc(Cl)nc1 [Acetamiprid],51.9 ± 4.8%,40.7 ± 3%,56.8 ± 6.8%,75 ± 2.6%,9.86 ± 0.62%,15.7 ± 2.8%,17.2 ± 2.9%,46.9 ± 3.9%,42.3 ± 4.8%,33.6 ± 4%
O=c1c2ccccc2[nH]c2ccccc12 [Acridone],62.8 ± 6%,47.2 ± 3.6%,50.5 ± 5%,71.9 ± 1.1%,11.4 ± 0.43%,19.2 ± 3.2%,21.8 ± 3.6%,57.8 ± 8.4%,55.6 ± 1.6%,44.9 ± 4.3%
ClC1=C(Cl)C2(Cl)C3C4C=CC(C4)C3C1(Cl)C2(Cl)Cl (configuration not stated) [Aldrin],,1.53 ± 0.48%,18.4 ± 4%,,84.1 ± 2.4%,90.4 ± 12%,99.8 ± 12%,1.3 ± 0.86%,1.34 ± 0.14%,1.4 ± 0.28%
C=CCC1=C(C)C(OC(=O)C2C(C=C(C)C)C2(C)C)CC1=O (configuration not stated) [Allethrin],,,34.6 ± 6.6%,,36 ± 1.6%,38.6 ± 3.5%,37.9 ± 1.6%,,0.042 ± 0.073%,

SMILES,"chemical recovery [1, 4]","chemical recovery [1, 5]","chemical recovery [1, 6]","chemical recovery [1, 7]",chemical recovery into PDMS ([2]; equilibration time (d): 1),chemical recovery into PDMS ([2]; equilibration time (d): 3),chemical recovery into PDMS ([2]; equilibration time (d): 6),chemical recovery by SPE of plasma ([3]; equilibration time (d): 1),chemical recovery by SPE of plasma ([3]; equilibration time (d): 3),chemical recovery by SPE of plasma ([3]; equilibration time (d): 6)
CC(=O)OCC(=O)[C@@]12OC3(CCCC3)O[C@@H]1C[C@H]1[C@@H]3CCC4=CC(=O)C=C[C@]4(C)[C@@]3(F)[C@@H](O)C[C@@]12C [Amcinonide],,,39.5 ± 7.4%,,35.6 ± 2.6%,38.1 ± 2.4%,35.6 ± 2.7%,1.91 ± 3.3%,1.48 ± 2.6%,
CCNc1nc(NC(C)C)nc(SC)n1 [Ametryn],,41.6 ± 3.1%,44.1 ± 4.6%,72.1 ± 3.1%,13.2 ± 4.9%,20.6 ± 7.4%,23.9 ± 3.2%,24.3 ± 4.5%,9.36 ± 2%,4.74 ± 0.84%
CCCCc1oc2ccccc2c1C(=O)c1cc(I)c(OCCN(CC)CC)c(I)c1 [Amiodarone],,37.9 ± 13%,,106 ± 22%,0.0444 ± 0.019%,0.131 ± 0.037%,0.0473 ± 0.062%,0.357 ± 0.17%,0.127 ± 0.05%,
CN(C)CCC=C1c2ccccc2CCc2ccccc21 [Amitriptyline],0.236 ± 0.082%,39.4 ± 10%,44.1 ± 5.6%,77.5 ± 5.1%,0.00525 ± 0.0045%,0.0228 ± 0.034%,,0.152 ± 0.26%,0.14 ± 0.12%,0.0767 ± 0.067%
CC(C)(C#N)c1cc(Cn2cncn2)cc(C(C)(C)C#N)c1 [Anastrozole],51.4 ± 5.5%,44.4 ± 1.8%,47.9 ± 3.9%,69.1 ± 2.4%,34.8 ± 2.8%,39.8 ± 1.5%,41.8 ± 2.5%,14.8 ± 1.9%,9.48 ± 1.3%,4.8 ± 0.57%
Nc1ccc(/N=N/c2ccccc2)cc1 [Aniline Yellow],,,28.9 ± 4.3%,,12.3 ± 4.1%,10.4 ± 4.8%,11.3 ± 3%,6.65 ± 1.6%,7.55 ± 0.93%,5.19 ± 0.91%
CCNc1nc(Cl)nc(NC(C)C)n1 [Atrazine],43.7 ± 5.2%,41.5 ± 2.1%,50.6 ± 6.8%,62.9 ± 5.5%,34.5 ± 1.7%,39.1 ± 2.9%,39.4 ± 0.96%,6.06 ± 0.65%,4.12 ± 0.74%,2.39 ± 0.2%
CN1CCCC(n2nc(Cc3ccc(Cl)cc3)c3ccccc3c2=O)CC1 (configuration not stated) [Azelastine],,,43.9 ± 6%,64.8 ± 3.2%,0.00383 ± 0.0066%,,0.00617 ± 0.0099%,1.03 ± 0.14%,1.27 ± 0.31%,0.461 ± 0.41%
c1ccc(/N=N/c2ccccc2)cc1 [Azobenzene],,,8.55 ± 2.6%,,26.2 ± 3.9%,28.4 ± 5.6%,27.9 ± 4%,0.184 ± 0.32%,0.401 ± 0.35%,0.284 ± 0.25%
CO/C=C(/C(=O)O)c1ccccc1Oc1cc(Oc2ccccc2C#N)ncn1 [Azoxystrobin acid],,,51.7 ± 3.9%,76.6 ± 5.2%,,0.00158 ± 0.0027%,,46.8 ± 4.8%,50.4 ± 2%,45.9 ± 2.3%
CO/C=C(/C(=O)OC)c1ccccc1Oc1cc(Oc2ccccc2C#N)ncn1 [Azoxystrobin],46.6 ± 5.9%,46.7 ± 1.1%,51.9 ± 7.1%,75.6 ± 3.4%,40.1 ± 1.9%,43.9 ± 3.2%,43 ± 0.52%,5.12 ± 0.84%,3.88 ± 0.44%,2.15 ± 0.22%
Brc1ccc(Oc2cc(Br)c(Br)cc2Br)c(Br)c1 [BDE99],53.9 ± 4.6%,1.63 ± 0.65%,,4.89 ± 0.2%,,99.1 ± 13%,92.4 ± 7.2%,1.13 ± 1.1%,,
Brc1ccc(Oc2c(Br)cc(Br)cc2Br)c(Br)c1 [BDE100],67.4 ± 0.92%,3.57 ± 1.4%,,7.72 ± 0.68%,,99.1 ± 13%,95.9 ± 6%,2.2 ± 2%,1.42 ± 0.25%,0.324 ± 0.56%
Brc1cc(Br)c(Oc2cc(Br)c(Br)cc2Br)cc1Br [BDE153],,6.21 ± 3.4%,,44.6 ± 2.3%,,68.9 ± 6.3%,71.7 ± 9.9%,2.71 ± 2.5%,2.62 ± 0.49%,1 ± 0.88%
Brc1cc(Br)c(Oc2cc(Br)c(Br)cc2Br)c(Br)c1 [BDE154],,,,28.8 ± 2.3%,,67.2 ± 9.8%,66.7 ± 20%,1.62 ± 1.4%,1.94 ± 0.88%,
CNC(=O)Oc1cccc2c1OC(C)(C)O2 [Bendiocarb],35.9 ± 5.4%,45.8 ± 1.5%,45.4 ± 4.6%,0.0898 ± 0.13%,25.2 ± 0.81%,20.4 ± 0.2%,21.4 ± 0.87%,20.4 ± 0.99%,26.5 ± 2.1%,21.6 ± 1.7%
O=S(=O)(O)c1ccccc1 [Benzenesulfonic acid],1.83 ± 0.28%,2.56 ± 1.3%,8.52 ± 6%,80.7 ± 8.4%,0.00847 ± 0.015%,,,3.18 ± 3.5%,1.77 ± 0.98%,2.93 ± 1.1%
c1ccc2c(c1)-c1cccc3c1c-2cc1ccccc13 [Benzo(b)fluoranthene],,0.807 ± 0.61%,,36 ± 1.5%,,93.1 ± 4.8%,93.6 ± 18%,,3.78 ± 9.3%,
c1ccc2c(c1)Cc1cc3ccccc3cc1-2 [Benzo(b)fluorene],57.9 ± 6.2%,1.4 ± 0.48%,17.5 ± 3.4%,69.1 ± 5.1%,,107 ± 3.9%,110 ± 13%,1.71 ± 1.6%,2.82 ± 0.45%,2.41 ± 0.48%
CCOC(=O)c1ccc(N)cc1 [Benzocain],32.9 ± 5.6%,39.3 ± 3.4%,,64.9 ± 4.3%,23.5 ± 1.9%,23.3 ± 1.7%,26.3 ± 2.2%,14.6 ± 2.6%,18.4 ± 1.5%,14.4 ± 2.3%
